Experimental findings from US20250171426A1, “PYRIMIDINEDIONE-BASED COMPOUNDS AS AXL, C-MET, AND MER INHIBITORS AND METHODS OF USE THEREOF” (CMG Pharmaceutical Co., Ltd., priority 2022, published 2025) are described below.

One experiment deals with HCC827OR. Kind of experiment: Cell viability assay (CellTiter-Glo 2.0), osimertinib-resistant HCC827/OR cells. In kind it is cell-based, human. The text has this: (§1) To explore c-MET and AXL mechanisms of EGFR TKI resistance, resistant cells of the EGFR TKI hypersensitive EGFR exon 19 mutant NSCLC cell line, HCC827 and PC9 were generated by exposing these cells to increasing concentrations of EGFR TKI for over 3 months.
(§2) Gefitinib-resistant cells were referred to as HCC827/GR. […] Osimertinib-resistant cells were referred to as HCC827/OR.

The next experiment has as its system HCC827GR. Kind of experiment: Cell viability assay (CellTiter-Glo 2.0), gefitinib-resistant HCC827/GR cells. It counts as cell-based, human. Conditions: 72 h, combination of EGFR TKI and inhibitor of Formula (I), read-out: Relative cell viability, IC50 (nM) HCC827GR.
Text: as §1
The human cell line HCC827 was purchased from the American Type Culture Collection (Manassas, VA), and the PC9 cell line was obtained from RIKEN Cell Bank (Ibaraki, Japan). […] Gefitinib-resistant cells were referred to as HCC827/GR. […] Osimertinib-resistant cells were referred to as HCC827/OR.
(§3) Cell viability assays were carried out by plating 1,000 cells per well of HCC827 or PC9 resistant cells, respectively, into white transparent-bottom 384-well plates. The cells were treated with each TKI across a 10-dose range from 1 nM to 10,000 nM. After 72 h of drug treatment, cell viability was measured using the CellTiter-Glo 2.0 assay (Promega, Madison, WI).
as §3
A general note: In ATP-based viability assays light output follows the ATP content of the culture.

In another experiment the test system is PC9ER. Kind of experiment: Cell viability assay (CellTiter-Glo 2.0), erlotinib-resistant PC9/ER cells. It counts as cell-based. The settings on record: 72 h, combination of EGFR TKI and inhibitor of Formula (I), read-out: Relative cell viability, IC50 (nM) PC9ER.
Text: as §1, §2

For a further experiment, the system named is HCC827ER. The experiment is described as follows: Cell viability assay (CellTiter-Glo 2.0), erlotinib-resistant HCC827/ER cells. In kind it is cell-based, human. Conditions: 72 h, combination of EGFR TKI and inhibitor of Formula (I), read-out: Relative cell viability, IC50 (nM) HCC827ER.
Text: as §1, §2

Another experiment addresses T1, AXL (Homo sapiens, UniProt P30530).
T1 sequence (P30530 26-894): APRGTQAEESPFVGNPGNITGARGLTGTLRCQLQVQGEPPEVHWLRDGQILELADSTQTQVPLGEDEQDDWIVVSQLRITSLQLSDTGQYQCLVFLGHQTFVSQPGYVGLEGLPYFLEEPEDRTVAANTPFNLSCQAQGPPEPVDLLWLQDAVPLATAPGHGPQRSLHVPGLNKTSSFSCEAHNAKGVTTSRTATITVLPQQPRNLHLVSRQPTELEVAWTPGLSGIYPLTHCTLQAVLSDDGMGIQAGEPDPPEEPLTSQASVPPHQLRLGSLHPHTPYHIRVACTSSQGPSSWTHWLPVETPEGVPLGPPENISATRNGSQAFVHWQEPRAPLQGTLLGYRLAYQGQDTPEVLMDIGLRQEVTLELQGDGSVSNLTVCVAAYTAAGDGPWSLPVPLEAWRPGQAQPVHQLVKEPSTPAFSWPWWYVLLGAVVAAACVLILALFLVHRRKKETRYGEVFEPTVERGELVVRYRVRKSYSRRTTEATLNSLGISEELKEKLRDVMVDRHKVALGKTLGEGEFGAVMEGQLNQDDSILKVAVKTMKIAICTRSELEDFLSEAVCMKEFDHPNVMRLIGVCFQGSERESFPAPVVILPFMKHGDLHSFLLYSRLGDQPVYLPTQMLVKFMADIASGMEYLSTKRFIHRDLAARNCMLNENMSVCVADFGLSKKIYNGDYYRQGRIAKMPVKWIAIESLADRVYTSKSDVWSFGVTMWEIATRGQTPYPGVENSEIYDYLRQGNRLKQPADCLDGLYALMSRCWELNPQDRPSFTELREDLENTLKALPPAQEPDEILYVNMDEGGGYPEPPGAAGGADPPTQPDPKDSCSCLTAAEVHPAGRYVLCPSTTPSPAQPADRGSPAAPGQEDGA
Kind of experiment: Enzymatic assay (ADP-Glo kinase reaction), AXL. In kind it is biochemical. The settings on record: 10 μM ATP, 60 min, ADP-GLO luminescence. In short, it runs like this:
(§4)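 For both AXL and c-MET, reactions in tyrosine kinase buffer used 0.2 μg/μL poly(Glu4,Tyr1) and 10 μM ATP with serially diluted inhibitor, 60 min at room temperature. ADP formed was read by ADP-Glo luminescence after 40 min reagent incubation.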
On the technique in general: In ADP-Glo the light output rises with the ADP produced.

The target in a further experiment is c-MET (Homo sapiens, UniProt P08581). The experiment is described as follows: Enzymatic assay (ADP-Glo kinase reaction), c-MET. It counts as biochemical. The settings on record: 10 μM ATP, 60 min, ADP-GLO luminescence. Summed up:
as §4

The next experiment concerns the target T2, MER (Homo sapiens, UniProt Q12866).
T2 sequence (Q12866 21-999): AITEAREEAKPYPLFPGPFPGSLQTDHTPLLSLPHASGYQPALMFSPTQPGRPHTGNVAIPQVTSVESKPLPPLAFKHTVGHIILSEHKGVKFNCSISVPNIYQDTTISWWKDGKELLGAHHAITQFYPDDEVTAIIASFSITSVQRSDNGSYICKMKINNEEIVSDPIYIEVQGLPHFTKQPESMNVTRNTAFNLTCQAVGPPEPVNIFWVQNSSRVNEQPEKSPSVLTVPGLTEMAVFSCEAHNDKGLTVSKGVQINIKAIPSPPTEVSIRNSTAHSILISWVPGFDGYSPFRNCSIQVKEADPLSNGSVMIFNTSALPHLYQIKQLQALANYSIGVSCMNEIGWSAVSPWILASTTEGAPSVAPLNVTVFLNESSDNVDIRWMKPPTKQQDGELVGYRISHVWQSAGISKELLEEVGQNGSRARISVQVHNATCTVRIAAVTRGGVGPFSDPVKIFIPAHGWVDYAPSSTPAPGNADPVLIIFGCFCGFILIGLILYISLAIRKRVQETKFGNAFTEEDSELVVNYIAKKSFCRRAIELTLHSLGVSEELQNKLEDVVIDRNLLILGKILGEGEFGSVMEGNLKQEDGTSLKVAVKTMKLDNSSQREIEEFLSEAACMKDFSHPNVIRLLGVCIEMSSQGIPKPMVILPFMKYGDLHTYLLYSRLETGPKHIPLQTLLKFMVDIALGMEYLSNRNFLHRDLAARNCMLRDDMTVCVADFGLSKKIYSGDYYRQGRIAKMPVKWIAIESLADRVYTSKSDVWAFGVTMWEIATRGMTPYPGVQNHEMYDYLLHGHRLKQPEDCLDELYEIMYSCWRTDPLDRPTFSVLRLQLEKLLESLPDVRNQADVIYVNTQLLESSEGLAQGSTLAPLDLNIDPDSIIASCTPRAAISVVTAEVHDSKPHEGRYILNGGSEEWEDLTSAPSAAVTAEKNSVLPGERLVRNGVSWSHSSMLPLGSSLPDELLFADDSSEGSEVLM
Kind of experiment: Enzymatic assay (ADP-Glo kinase reaction), MER. Conditions: 10 μM ATP, 60 min, ADP-GLO luminescence. In kind it is biochemical. Summed up:
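ADP-Glo luminescence assay of MER in tyrosine kinase buffer with 0.2 μg/μL poly(Glu4,Tyr1) substrate and 10 μM ATP. Serially diluted inhibitor reacted 60 min at room temperature. IC50 taken from luminescence after ADP-Glo and detection steps.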

Chain of c-MET (P08581 25-1390): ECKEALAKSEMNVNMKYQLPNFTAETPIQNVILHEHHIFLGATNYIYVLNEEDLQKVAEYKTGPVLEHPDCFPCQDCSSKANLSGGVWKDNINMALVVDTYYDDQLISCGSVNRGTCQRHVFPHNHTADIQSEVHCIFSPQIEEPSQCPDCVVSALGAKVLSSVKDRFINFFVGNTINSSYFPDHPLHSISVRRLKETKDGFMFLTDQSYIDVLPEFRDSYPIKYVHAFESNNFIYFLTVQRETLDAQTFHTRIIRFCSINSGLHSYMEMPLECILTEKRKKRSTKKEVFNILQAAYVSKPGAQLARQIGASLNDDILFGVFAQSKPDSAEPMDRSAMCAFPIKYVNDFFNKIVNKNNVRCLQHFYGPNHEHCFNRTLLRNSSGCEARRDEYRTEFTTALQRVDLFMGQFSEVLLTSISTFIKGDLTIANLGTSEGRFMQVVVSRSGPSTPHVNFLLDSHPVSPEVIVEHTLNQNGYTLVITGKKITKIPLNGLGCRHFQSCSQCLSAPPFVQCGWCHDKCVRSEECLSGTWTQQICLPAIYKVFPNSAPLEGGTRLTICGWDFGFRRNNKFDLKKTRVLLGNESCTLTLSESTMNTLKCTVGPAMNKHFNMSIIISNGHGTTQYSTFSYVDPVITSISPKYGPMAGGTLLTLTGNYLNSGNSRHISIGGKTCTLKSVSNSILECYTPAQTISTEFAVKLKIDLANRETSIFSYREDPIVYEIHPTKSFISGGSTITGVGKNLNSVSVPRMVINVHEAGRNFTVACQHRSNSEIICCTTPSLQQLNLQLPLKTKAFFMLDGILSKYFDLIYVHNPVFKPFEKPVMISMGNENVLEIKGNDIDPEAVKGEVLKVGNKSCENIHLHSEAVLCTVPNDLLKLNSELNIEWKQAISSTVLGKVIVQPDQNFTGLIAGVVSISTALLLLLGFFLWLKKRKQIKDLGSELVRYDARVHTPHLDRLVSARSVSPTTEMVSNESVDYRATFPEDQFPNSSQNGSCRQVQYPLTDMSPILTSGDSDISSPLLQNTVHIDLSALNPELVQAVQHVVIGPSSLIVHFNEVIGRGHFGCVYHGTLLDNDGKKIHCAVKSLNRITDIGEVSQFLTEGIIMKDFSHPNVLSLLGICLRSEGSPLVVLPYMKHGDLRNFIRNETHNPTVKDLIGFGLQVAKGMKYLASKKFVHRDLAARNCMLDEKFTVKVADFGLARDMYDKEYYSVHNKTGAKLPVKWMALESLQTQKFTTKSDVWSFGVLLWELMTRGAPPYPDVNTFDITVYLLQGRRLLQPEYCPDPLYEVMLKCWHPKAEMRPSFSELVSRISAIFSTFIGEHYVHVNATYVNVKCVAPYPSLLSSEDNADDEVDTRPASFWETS

Turning to `C=CC(=O)Nc1cc(Nc2nccc(-c3cn(C)c4ccccc34)n2)c(OC)cc1N(C)CCN(C)C` [osimertinib, reference compound], the “fold higher resistance than the parental cells, HCC827/OR” value in the experiment on HCC827OR (HCC827/OR vs HCC827) was 3,000 fold.
Take “N-(4-(2-amino-3-(3-piperidin-4-yl)prop-1-ynyl)pyridin-4-yloxy)-3-fluorophenyl)-3-cyclohexyl-1-ethyl-2,4-dioxo-1,2,3,4-tetrahydropyrimidine-5-carboxamide [Example 65]”: the IC50 was < 1000 nM in the experiment on HCC827GR; < 1000 nM with PC9ER; < 10000 nM in the experiment on HCC827OR (72 h, combination of EGFR TKI and inhibitor of Formula (I), EGFR TKI-resistant cells, read-out: Relative cell viability, IC50 (nM) HCC827OR); < 1000 nM in the experiment on HCC827ER.
On to `COCCN1CCN(C(=O)/C=C/c2c(Oc3ccc(NC(=O)c4cn(C(C)C)c(=O)n(-c5ccc(F)cc5)c4=O)cc3F)ccnc2N)CC1` [Example 4, (E)-N-(4-(2-amino-3-(3-(4-(2-methoxyethyl)piperazin-1-yl)-3-oxoprop-1-enyl)pyridin-4-yloxy)-3-fluorophenyl)-3-(4-fluorophenyl)-1-isopropyl-2,4-dioxo-1,2,3,4-tetrahydropyrimidine-5-carboxamide], for which the IC50 at AXL, against c-MET and against MER was < 10 nM each time.
Regarding `CC(C)n1cc(C(=O)Nc2ccc(Oc3ccnc(N)c3C#CC(C)(C)N3CCNCC3)c(F)c2)c(=O)n(-c2ccc(F)cc2)c1=O` [Example 19, N-(4-(2-amino-3-(3-methyl-3-(piperazin-1-yl)but-1-ynyl)pyridin-4-yloxy)-3-fluorophenyl)-3-(4-fluorophenyl)-1-isopropyl-2,4-dioxo-1,2,3,4-tetrahydropyridmidine-5-carboxamide], the IC50 against AXL was < 10 nM; against c-MET it was < 1000 nM; against MER, < 10 nM.
Consider `CC(C)(C#Cc1c(Oc2ccc(NC(=O)c3c[nH]c(=O)n(-c4ccc(F)cc4)c3=O)cc2F)ccnc1N)N1CCNCC1` [Example 52, N-(4-(2-amino-3-(3-methyl-3-(piperazin-1-yl)but-1-ynyl)pyridin-4-yloxy)-3-fluorophenyl)-3-(4-fluorophenyl)-2,4-dioxo-1,2,3,4-tetrahydropyrimidine-5-carboxamide], for which the IC50 against AXL is < 100 nM; against c-MET, < 1000 nM; at MER it was < 100 nM.
